For this data set, the target named is hERG (Potassium voltage-gated channel subfamily H member 2) (Homo sapiens, UniProt Q12809). As to the kind of experiment: Electrophysiological Assay. The note with it: CHO cells stably expressing hERG potassium channels.

By IC50 is commonly meant the concentration that gives 50% inhibition. Read a high IC50 as a need for much substance.

SMILES strings stand for the structures.

Chain of hERG (Potassium voltage-gated channel subfamily H member 2) (Q12809 whole entry): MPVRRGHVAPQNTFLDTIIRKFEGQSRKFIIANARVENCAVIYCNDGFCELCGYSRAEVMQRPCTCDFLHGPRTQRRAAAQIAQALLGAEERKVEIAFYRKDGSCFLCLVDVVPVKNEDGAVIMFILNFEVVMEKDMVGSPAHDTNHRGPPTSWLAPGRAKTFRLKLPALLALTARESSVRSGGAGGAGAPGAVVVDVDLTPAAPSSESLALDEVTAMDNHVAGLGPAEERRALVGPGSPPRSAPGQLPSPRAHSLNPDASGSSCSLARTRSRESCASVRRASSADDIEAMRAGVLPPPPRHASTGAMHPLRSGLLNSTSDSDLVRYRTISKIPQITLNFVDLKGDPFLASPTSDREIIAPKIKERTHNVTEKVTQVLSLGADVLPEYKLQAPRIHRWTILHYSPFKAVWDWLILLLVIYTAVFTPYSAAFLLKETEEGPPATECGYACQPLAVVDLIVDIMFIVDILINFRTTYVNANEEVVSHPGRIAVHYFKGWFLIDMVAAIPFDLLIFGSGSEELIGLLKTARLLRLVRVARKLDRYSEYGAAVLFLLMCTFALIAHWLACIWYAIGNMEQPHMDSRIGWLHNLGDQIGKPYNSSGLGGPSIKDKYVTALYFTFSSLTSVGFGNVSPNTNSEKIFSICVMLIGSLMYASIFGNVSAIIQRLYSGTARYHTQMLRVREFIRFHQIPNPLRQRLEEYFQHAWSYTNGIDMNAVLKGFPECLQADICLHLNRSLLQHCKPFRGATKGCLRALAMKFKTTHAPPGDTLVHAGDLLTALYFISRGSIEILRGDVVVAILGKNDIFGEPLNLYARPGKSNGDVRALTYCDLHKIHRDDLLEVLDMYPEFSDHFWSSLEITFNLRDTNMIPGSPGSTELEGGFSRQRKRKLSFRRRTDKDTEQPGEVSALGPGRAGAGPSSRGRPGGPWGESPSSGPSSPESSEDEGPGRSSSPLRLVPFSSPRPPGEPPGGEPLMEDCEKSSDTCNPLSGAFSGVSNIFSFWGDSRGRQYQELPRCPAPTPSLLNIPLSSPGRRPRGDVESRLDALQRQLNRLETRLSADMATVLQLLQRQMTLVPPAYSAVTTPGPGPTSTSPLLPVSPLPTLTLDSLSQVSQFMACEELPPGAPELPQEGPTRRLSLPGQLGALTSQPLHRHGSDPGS
Method: CHO (Chinese Hamster Ovary) cells stably expressing hERG potassium channels were taken, and hERG potassium channel currents were recorded at room temperature by means of a whole-cell patch-clamp technique. A glass microelectrode was formed by pulling a glass electrode blank (BF150-86-10, Sutter) with a glass microelectrode puller. The tip resistance was about 2-5 MΩ after perfusion of a pippette solution. The glass microelectrode could be connected to a patch clamp amplifier by inserting the glass microelectrode into an amplifier probe. Clamping voltages and data recording were controlled and recorded by a computer with pClamp 10 software, with a sampling frequency of 10 kHz and a filtering frequency of 2 kHz. After the whole-cell recording was obtained, the cells were clamped at −80 mV, and the step voltage evoking hERG potassium current (I hERG) was changed from −80 mV to +20 mV by giving a 2 s depolarization voltage and then repolarized to −50 mV for 1 s, and returned to −80 mV. Such voltage stimulation was given every 10 s, and the administration process was started after it was determined that the hERG potassium currents were stable (1 min). The compound at each test concentration was given at least 1 min, and at least 2 cells (n≥2) were tested for each concentration.

Regarding `CN1CCC(N(Cc2ccc(F)cn2)C(=O)NCc2ccc3c(c2)CC(C(F)(F)F)O3)CC1` (stereo unspecified) [US20230348421, Compound 89], the IC50 was 2050 nM. This lies in the single-digit micromolar range.

Source of the values: BindingDB's records for patent US20230348421 (Geneora Pharma (Shijiazhuang) Co., 2023).
